Assay results published in BindingDB's records for doi:10.1021/jm960305h (National Institute of Diabetes and Digestive and Kidney …, 1997).

Tests used:
[1] = Binding affinity against sigma receptor using radioligand ([3H](+)-pentazocine) binding assay
[2] = as above; remark: listed apart in the source

c1ccc(CCCN2CCCN(CCOC(c3ccccc3)c3ccccc3)CC2)cc1 [1-(2-Benzhydryloxy-ethyl)-4-(3-phenyl-propyl)-[1,4]diazepane]
IC50 [1]: 26 nM

Fc1ccc(C(OCCN2CCNCC2)c2ccc(F)cc2)cc1 [1-{2-[Bis-(4-fluoro-phenyl)-methoxy]-ethyl}-piperazine]
IC50 [1]: 965 nM

c1ccc(C(OCCN2CCN(CCOC(c3ccccc3)c3ccccc3)CC2)c2ccccc2)cc1 [1,4-Bis-(2-benzhydryloxy-ethyl)-piperazine]
IC50 [1]: > 10000 nM

C[C@@H]1CN(CCOC(c2ccc(F)cc2)c2ccc(F)cc2)[C@@H](C)CN1CCOC(c1ccc(F)cc1)c1ccc(F)cc1 [(2S,5R)-1,4-Bis-{2-[bis-(4-fluoro-phenyl)-methoxy]-ethyl}-2,5-dimethyl-piperazine]
IC50 [1]: 3640 nM

c1ccc(CCCNC2CCCCN(CCOC(c3ccccc3)c3ccccc3)C2)cc1 (stereo unspecified) [[1-(2-Benzhydryloxy-ethyl)-azepan-3-yl]-(3-phenyl-propyl)-amine]
IC50 [1]: 83 nM

c1ccc(C(OCCN2CCNCC2)c2ccccc2)cc1 [1-(2-Benzhydryloxy-ethyl)-piperazine]
IC50 [1]: 1480 nM

CNCCN(C)CCOC(c1ccccc1)c1ccccc1 [N-(2-Benzhydryloxy-ethyl)-N,N'-dimethyl-ethane-1,2-diamine]
IC50 [1]: 231 nM

C[C@@H]1CN(CCOC(c2ccccc2)c2ccccc2)[C@@H](C)CN1CCOC(c1ccccc1)c1ccccc1 [(2S,5R)-1,4-Bis-(2-benzhydryloxy-ethyl)-2,5-dimethyl-piperazine]
IC50 [1]: 4000 nM

c1ccc(CCCN2CCCCC(NCCOC(c3ccccc3)c3ccccc3)C2)cc1 (stereo unspecified) [(2-Benzhydryloxy-ethyl)-[1-(3-phenyl-propyl)-azepan-3-yl]-amine]
IC50 [1]: 78 nM

NCCCCNCCOC(c1ccccc1)c1ccccc1 [N*1*-(2-Benzhydryloxy-ethyl)-butane-1,4-diamine]
IC50 [1]: > 10000 nM

c1ccc(CCCN2CCNCC2)cc1 [1-(3-Phenyl-propyl)-piperazine]
IC50 [2]: 109 nM

c1ccc(CCCNCCCCNCCOC(c2ccccc2)c2ccccc2)cc1 [N-(2-Benzhydryloxy-ethyl)-N'-(3-phenyl-propyl)-butane-1,4-diamine]
IC50 [1]: 1050 nM

C[C@@H]1CN(CCOC(c2ccc(F)cc2)c2ccc(F)cc2)[C@@H](C)CN1 [(2S,5R)-1-{2-[Bis-(4-fluoro-phenyl)-methoxy]-ethyl}-2,5-dimethyl-piperazine]
IC50 [1]: 65 nM

c1ccc(CCCN2CCCCN(CCOC(c3ccccc3)c3ccccc3)CC2)cc1 [1-(2-Benzhydryloxy-ethyl)-4-(3-phenyl-propyl)-[1,4]diazocane]
IC50 [1]: 180 nM

C[C@@H]1CN(CCCc2ccccc2)[C@@H](C)CN1 [(2S,5R)-2,5-Dimethyl-1-(3-phenyl-propyl)-piperazine]
IC50 [2]: 8.5 nM

CN(CCCc1ccccc1)CCN(C)CCOC(c1ccccc1)c1ccccc1 [N-(2-Benzhydryloxy-ethyl)-N,N'-dimethyl-N'-(3-phenyl-propyl)-ethane-1,2-diamine]
IC50 [1]: 34 nM

C[C@@H]1CN(CCOC(c2ccccc2)c2ccccc2)[C@@H](C)CN1 [(2S,5R)-1-(2-Benzhydryloxy-ethyl)-2,5-dimethyl-piperazine]
IC50 [1]: 67 nM

C[C@@H]1CN(CCCc2ccccc2)[C@@H](C)CN1CCCc1ccccc1 [(2S,5R)-2,5-Dimethyl-1,4-bis-(3-phenyl-propyl)-piperazine]
IC50 [1]: 8.5 nM

Fc1ccc(C(OCCN2CCN(CCOC(c3ccc(F)cc3)c3ccc(F)cc3)CC2)c2ccc(F)cc2)cc1 [1,4-Bis-{2-[bis-(4-fluoro-phenyl)-methoxy]-ethyl}-piperazine]
IC50 [2]: > 10000 nM

c1ccc(CCCN2CCN(CCCc3ccccc3)CC2)cc1 [1,4-Bis-(3-phenyl-propyl)-piperazine]
IC50 [2]: 0.5 nM

C[C@@H]1CN(CCOC(c2ccccc2)c2ccccc2)[C@@H](C)CN1CCCc1ccccc1 [(2S,5R)-1-(2-Benzhydryloxy-ethyl)-2,5-dimethyl-4-(3-phenyl-propyl)-piperazine]
IC50 [2]: 8.6 nM
